Data on 22 compounds can be found in EP0694535A1, “Non-peptidyl tachykinin receptor antagonists” (ELI LILLY AND COMPANY, priority 1994, dated 1996).

For test [1], the target named is T1, NK-1 receptor (Homo sapiens, UniProt P25103).
T1 construct: an aliquot of IM9 cells; endogenous in cells; host or cells: IM9 cells (whole cells)
As to the kind of experiment: NK-1 Receptor Binding Assay (competition with labeled substance P on IM9 cells). As to conditions: for IC50: concentration which inhibits fifty percent of the binding of substance P, 20 pM labeled substance P, 45 minutes at 4°C; for inhibition at 10 µM: inhibition of substance P binding to the NK-1 receptor, read-out: Percent Inhibition. On the procedure:
Radioreceptor binding assays were performed using a derivative of a previously published protocol. D.G. Payan, et al., Journal of Immunology, 133:3260-3265 (1984). In this assay an aliquot of IM9 cells (1 x 10⁶ cells/tube in […] medium supplemented with 10% fetal calf serum) was incubated with 20 pM […] substance P in the presence of increasing competitor concentrations for 45 minutes at 4°C.
The IM9 cell line is a well-characterized cell line which is readily available to the public. See. e.g., Annals of the New York Academy of Science, 190: 221-234 (1972); Nature (London), 251:443-444 (1974); Proceedings of the National Academy of Sciences (USA), 71:84-88 (1974). These cells were routinely cultured in RPMI 1640 supplemented with 50 µg/ml gentamicin sulfate and 10% fetal calf serum.
The reaction was terminated by filtration through a glass fiber filter harvesting system using filters previously soaked for 20 minutes in 0.1% polyethylenimine. Specific binding of labeled substance P was determined in the presence of 20 nM unlabeled ligand.
Column 1 provides the example number of the test antagonist compound. The next columns detail the substitution patterns of the test compound.

Test [2] concerns the target T2, human NK-2 receptor (Homo sapiens, UniProt P21452).
T2 construct: expressed in transfected cells; host or cells: CHO-hNK-2R cells (CHO-derived), membrane preparation
T2 sequence (P21452 1-398): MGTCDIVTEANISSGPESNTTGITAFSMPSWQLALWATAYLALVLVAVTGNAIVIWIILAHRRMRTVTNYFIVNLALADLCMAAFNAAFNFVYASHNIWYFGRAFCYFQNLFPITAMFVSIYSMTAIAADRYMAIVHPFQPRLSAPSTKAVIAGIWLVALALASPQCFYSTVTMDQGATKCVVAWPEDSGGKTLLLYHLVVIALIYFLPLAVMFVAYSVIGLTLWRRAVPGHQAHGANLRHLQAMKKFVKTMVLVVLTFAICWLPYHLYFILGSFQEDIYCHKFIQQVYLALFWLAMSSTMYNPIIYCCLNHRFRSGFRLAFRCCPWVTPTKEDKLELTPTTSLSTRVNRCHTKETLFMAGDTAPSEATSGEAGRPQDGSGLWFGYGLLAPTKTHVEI
As to the kind of experiment: NK-2 Receptor Binding Assay (CHO-hNK-2R membranes, iodohistidyl-neurokinin A). As to conditions: for inhibition at 10 µM: inhibition of neurokinin A binding at ten micromolar, read-out: Percent Inhibition @ 10 μM; for IC50: values in parentheses, amount necessary to inhibit fifty percent of the binding of neurokinin A. The protocol:
The CHO-hNK-2R cells, a CHO-derived cell line transformed with the human NK-2 receptor, expressing about 400,000 such receptors per cell, were grown in 75 cm flasks or roller bottles in minimal essential medium (alpha modification) with 10% fetal bovine serum. The gene sequence of the human NK-2 receptor is given in N.P. Gerard, et al., Journal of Biological Chemistry, 265:20455-20462 (1990).
For preparation of membranes, 30 confluent roller bottle cultures were dissociated by washing each roller bottle with 10 ml of Dulbecco's phosphate buffered saline (PBS) without calcium and magnesium, followed by addition of 10 ml of enzyme-free cell dissociation solution (PBS-based, from Specialty Media, Inc.). After an additional 15 minutes, the dissociated cells were pooled and centrifuged at 1,000 RPM for 10 minutes in a clinical centrifuge. Membranes were prepared by homogenization of the cell pellets in 300 ml 50 mM Tris buffer, pH 7.4 with a Tekmar® homogenizer for 10-15 seconds, followed by centrifugation at 12,000 RPM (20,000 x g) for 30 minutes using a Beckman JA-14® rotor. The pellets were washed once using the above procedure. and the final pellets were resuspended in 100-120 ml 50 mM Tris buffer, pH 7.4, and 4 ml aliquots stored frozen at -70 °C. The protein concentration of this preparation was 2 mg/ml.
For the receptor binding assay, one 4-ml aliquot of the CHO-hNK-2R membrane preparation was suspended in 40 ml of assay buffer containing 50 mM Tris, pH 7.4, 3 mM manganese chloride, 0.02% bovine serum albumin (BSA) and 4 µg/ml chymostatin. A 200 µl volume of the homogenate (40 µg protein) was used per sample. The radioactive ligand was [[…]]iodohistidyl-neurokinin A (New England Nuclear, NEX-252), 2200 Ci/mmol. The ligand was prepared in assay buffer at 20 nCi per 100 µl; the final concentration in the assay was 20 pM. Non-specific binding was determined using 1 µM eledoisin. Ten concentrations of eledoisin from 0.1 to 1000 nM were used for a standard concentration-response curve.
All samples and standards were added to the incubation in 10 µl dimethylsulfoxide (DMSO) for screening (single dose) or in 5 µl DMSO for IC₅₀ determinations. The order of additions for incubation was 190 or 195 µl assay buffer, 200 µl homogenate, 10 or 5 µl sample in DMSO, 100 µl radioactive ligand. The samples were incubated 1 hr at room temperature and then filtered on a cell harvester through filters which had been presoaked for two hours in 50 mM Tris buffer, pH 7.7, containing 0.5% BSA. The filter was washed 3 times with approximately 3 ml of cold 50 mM Tris buffer, pH 7.7. The filter circles were then punched into 12 x 75 mm polystyrene tubes and counted in a gamma counter.
Table II, infra, provides a representative sample of the effectiveness as NK-2 receptor antagonists of many of the compounds of Formula I. The first column provides the Example number of the compound tested. The second column provides either the percent inhibition of neurokinin A binding when the compound is present in a ten micromolar concentration or the amount of compound (in micromolar amounts) necessary to inhibit fifty percent of the binding of neurokinin A. Those values which represent IC₅₀ values are designated by parentheses.

T1 sequence (P25103 whole entry): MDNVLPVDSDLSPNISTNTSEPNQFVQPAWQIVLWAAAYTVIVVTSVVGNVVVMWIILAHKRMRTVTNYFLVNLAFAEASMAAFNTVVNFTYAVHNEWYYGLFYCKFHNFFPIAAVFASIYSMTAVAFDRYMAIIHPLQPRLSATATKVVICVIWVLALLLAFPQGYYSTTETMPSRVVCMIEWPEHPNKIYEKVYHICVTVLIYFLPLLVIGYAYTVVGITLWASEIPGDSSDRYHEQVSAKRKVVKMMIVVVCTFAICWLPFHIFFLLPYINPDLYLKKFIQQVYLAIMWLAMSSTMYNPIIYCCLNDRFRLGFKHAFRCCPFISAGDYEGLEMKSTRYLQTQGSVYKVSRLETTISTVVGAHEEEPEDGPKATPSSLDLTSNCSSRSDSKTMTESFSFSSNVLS

By IC50 is commonly meant the concentration that gives 50% inhibition. What is called inhibition is the change of the read-out against control, counted positive when it falls. As to `COc1ccccc1Cn1c(-c2cc(OC)c(OC)c(OC)c2)nc2ccccc21` [Example 47, 1-(2-methoxybenzyl)-2-(3,4,5-trimethoxyphenyl)-benzimidazole], the IC50 in test [1] stood at 449 nM. For the same compound, the inhibition at 10 µM in test [2] is 67.7%.

In turn, `COc1cc(-c2nc3ccc(OCCCN4CCCCC4)cc3n2Cc2ccccc2)cc(OC)c1OC` [Example 74, 1-benzyl-2-(3,4,5-trimethoxyphenyl)-6-[3-(1-piperidinyl)propoxy]benzimidazole] yielded an IC50 in test [1] of 85 nM. In addition, in test [2], the inhibition at 10 µM was found to be 78%.

Compound `COc1cc(-c2nc3ccccc3n2Cc2ccccc2Br)cc(OC)c1OC` [Example 51, 1-(2-bromobenzyl)-2-(3,4,5-trimethoxyphenyl)-benzimidazole] gave an IC50 in test [1] of 591 nM. Besides, the inhibition at 10 µM in test [2] stood at 84.8%.

Turning to `COc1cc(-c2nc3ccccc3n2Cc2c(Cl)cccc2Cl)cc(OC)c1OC` [Example 52, 1-(2,6-dichlorobenzyl)-2-(3,4,5-trimethoxyphenyl)-benzimidazole], the inhibition at 10 µM is 20% in test [1] and -7.1% in test [2].

Take `COc1cc(-c2nc3ccccc3n2Cc2ccc(Cl)cc2Cl)cc(OC)c1OC` [Example 54, 1-(2,4-dichlorobenzyl)-2-(3,4,5-trimethoxyphenyl)-benzimidazole]: the results for the inhibition at 10 µM in test [1] and in test [2] were 56% and 86.2%, respectively.

In the case of `COc1cc(-c2nc3ccc(OCCCl)cc3n2Cc2ccccc2)cc(OC)c1OC` [Example 76, 1-benzyl-2-(3,4,5-trimethoxyphenyl)-6-(2-chloroethoxy)benzimidazole], the IC50 came out at 329 nM in test [1] and 7480 nM in test [2].

Turning to `COc1cc(-c2nc3ccccc3n2Cc2ccccc2C(F)(F)F)cc(OC)c1OC` [Example 49, 1-(2-trifluoromethylbenzyl)-2-(3,4,5-trimethoxyphenyl)-benzimidazole], the IC50 in test [1] came out at 721 nM. For the same compound, the inhibition at 10 µM in test [2] is 82%.

`Cc1cccc(-c2nc3ccccc3n2Cc2ccccc2I)c1` [Example 61, 1-(2-Iodobenzyl)-2-(3-methylphenyl)benzimidazole]: the figures for the inhibition at 10 µM in test [1] and in test [2] were 66% and 60.1%, respectively.

In the case of `COc1cc(-c2nc3ccc(OCCN4CCC(N5CCCCC5)CC4)cc3n2Cc2ccccc2)cc(OC)c1OC` [Example 77, 1-benzyl-2-(3,4,5-trimethoxyphenyl)-6-[2-[4-(piperidin-1-yl)piperdin-1-yl]ethoxy]benzimidazole], the concentration for half-maximal inhibition (IC50) in test [1] worked out at 123 nM; in test [2], 6250 nM.

Compound `COc1cc(-c2nc3ccc(OCCN4CCCC4)cc3n2Cc2ccccc2)cc(OC)c1OC` [Example 72, 1-benzyl-2-(3,4,5-trimethoxyphenyl)-6-[2-(1-pyrroldinyl)ethoxy]benzimidazole] came in with an IC50 in test [1] of 74 nM. In addition, the inhibition at 10 µM in test [2] came to 53.8%.

For the compound `COc1cc(-c2nc3ccccc3n2Cc2ccc(Cl)cc2)cc(OC)c1OC` [Example 42, 1-(4-chlorobenzyl)-2-(3,4,5-trimethoxyphenyl)-benzimidazole], the inhibition at 10 µM in test [1] was 61%; in test [2] it was 2.6%.

For `Cc1cccc(-c2nc3ccccc3n2Cc2ccc(Cl)cc2)c1` [Example 58, 1-(4-Chlorobenzyl)-2-(3-methylphenyl)benzimidazole], the figures for the inhibition at 10 µM in test [1] and in test [2] were 29% and 42.9%, respectively.

In test [1], `COc1cc(-c2nc3ccccc3n2Cc2ccccc2Cl)cc(OC)c1OC` [Example 41, 1-(2-chlorobenzyl)-2-(3,4,5-trimethoxyphenyl)-benzimidazole] displayed an IC50 of 815 nM. Besides, the inhibition at 10 µM in test [2] came to 73.7%.

Consider `Cc1cccc(-c2nc3ccc(OCCN4CCCCC4)cc3n2Cc2ccccc2)c1` [Example 85, 1-benzyl-2-(3-methylphenyl)-6-[2-(1-piperidinyl)ethoxy]benzimidazole], for which the IC50 in test [1] was 753 nM. Also, the inhibition at 10 µM in test [2] is 73.1%.

With `COc1cc(-c2nc3ccccc3n2Cc2ccc(C)cc2)cc(OC)c1OC` [Example 55, 1-(4-methylbenzyl)-2-(3,4,5-trimethoxyphenyl)-benzimidazole], the inhibition at 10 µM in test [1] stood at 53%; in test [2], 21.9%.

`COc1cc(-c2nc3ccccc3n2Cc2ccccc2I)cc(OC)c1OC` [Example 50, 1-(2-iodobenzyl)-2-(3,4,5-trimethoxyphenyl)-benzimidazole] yielded an IC50 in test [1] of 823 nM. Moreover, in test [2], the inhibition at 10 µM stood at 87.4%.

Regarding `COc1cc(-c2nc3ccc(OCCCCl)cc3n2Cc2ccccc2)cc(OC)c1OC` [Example 75, 1-benzyl-2-(3,4,5-trimethoxyphenyl)-6-(3-chloropropoxy)benzimidazole], in test [1], the IC50 amounted to 814 nM. Further, the inhibition at 10 µM in test [2] is 86.3%.

With `COc1ccc(Cn2c(-c3cc(OC)c(OC)c(OC)c3)nc3ccccc32)cc1` [Example 46, 1-(4-methoxybenzyl)-2-(3,4,5-trimethoxyphenyl)-benzimidazole], the inhibition at 10 µM was 56% in test [1] and -1.5% in test [2].

With `Cc1cccc(-c2nc3ccccc3n2Cc2c(Cl)cccc2Cl)c1` [Example 62, 1-(2,6-Dichlorobenzyl)-2-(3-methylphenyl)benzimidazole], the values for the inhibition at 10 µM in test [1] and in test [2] were 31% and 23.1%, respectively.

Compound `Cc1cccc(-c2nc3ccc(O)cc3n2Cc2ccccc2)c1` [Example 84, 1-benzyl-2-(3-methylphenyl)-6-hydroxybenzimidazole] returned an IC50 in test [1] of 590 nM. For the same compound, the inhibition at 10 µM in test [2] was 37.8%.

In test [1], `COc1cc(-c2nc3ccccc3n2Cc2ccccc2C)cc(OC)c1OC` [Example 43, 1-(2-methylbenzyl)-2-(3,4,5-trimethoxyphenyl)-benzimidazole] gave a half-inhibitory concentration (IC50) of 842 nM. For the same compound, the inhibition at 10 µM in test [2] is 68.4%.

In test [1], `COc1cc(-c2nc3ccc(OCCN4CCOCC4)cc3n2Cc2ccccc2)cc(OC)c1OC` [Example 70, 1-benzyl-2-(3,4,5-trimethoxyphenyl)-6-[2-(4-morpholinyl)ethoxy]benzimidazole] showed an IC50 of 85 nM. Besides, in test [2], the inhibition at 10 µM was found to be 63.7%.
